From PubChem BioAssay (NCI)
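Method: 48-hour compound exposure of cells in 96-well plates, five concentrations, linear interpolation of endpoints. The concentration for full growth arrest is given as TGI.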

Experiments:
Test in all cases: NCI anticancer screen, dose series, 48 h
RXF 393 renal = tested on: RXF 393 renal
786-0 renal = tested on: 786-0 renal
DMS 273 small cell lung = tested on: DMS 273 small cell lung
NCI-H226 lung = tested on: NCI-H226 lung
HOP-18 NSCLC = tested on: HOP-18 NSCLC
NCI-H460 lung = tested on: NCI-H460 lung
M14 melanoma = tested on: M14 melanoma
SNB-78 CNS = tested on: SNB-78 CNS
UACC-257 melanoma = tested on: UACC-257 melanoma
SF-295 CNS = tested on: SF-295 CNS
HOP-92 NSCLC = tested on: HOP-92 NSCLC
OVCAR-8 ovarian = tested on: OVCAR-8 ovarian
EKVX NSCLC = tested on: EKVX NSCLC
U251 CNS = tested on: U251 CNS
LXFL 529 NSCLC = tested on: LXFL 529 NSCLC
HT29 colon = tested on: HT29 colon
CAKI-1 renal = tested on: CAKI-1 renal
ACHN renal = tested on: ACHN renal
UACC-62 melanoma = tested on: UACC-62 melanoma
SK-MEL-2 melanoma = tested on: SK-MEL-2 melanoma
RPMI-8226 leukemia = tested on: RPMI-8226 leukemia
HCC-2998 colon = tested on: HCC-2998 colon
KM12 colon = tested on: KM12 colon
SK-MEL-5 melanoma = tested on: SK-MEL-5 melanoma
SK-OV-3 ovarian = tested on: SK-OV-3 ovarian
NCI-H23 lung = tested on: NCI-H23 lung
NCI-H522 lung = tested on: NCI-H522 lung
SF-539 CNS = tested on: SF-539 CNS
CCRF-CEM leukemia = tested on: CCRF-CEM leukemia
XF 498 CNS = tested on: XF 498 CNS
SK-MEL-28 melanoma = tested on: SK-MEL-28 melanoma
UO-31 renal = tested on: UO-31 renal
HCT-15 colon = tested on: HCT-15 colon
SNB-19 CNS = tested on: SNB-19 CNS
IGROV1 ovarian = tested on: IGROV1 ovarian
LOX IMVI melanoma = tested on: LOX IMVI melanoma
SR leukemia = tested on: SR leukemia
DLD-1 colon = tested on: DLD-1 colon
OVCAR-3 ovarian = tested on: OVCAR-3 ovarian
DMS 114 small cell lung = tested on: DMS 114 small cell lung
TK-10 renal = tested on: TK-10 renal
SF-268 CNS = tested on: SF-268 CNS
A549 NSCLC = tested on: A549 NSCLC
SN12C renal = tested on: SN12C renal
HOP-62 NSCLC = tested on: HOP-62 NSCLC
HL-60(TB) leukemia = tested on: HL-60(TB) leukemia
A498 renal = tested on: A498 renal
OVCAR-4 ovarian = tested on: OVCAR-4 ovarian
KM20L2 colon = tested on: KM20L2 colon
K-562 leukemia = tested on: K-562 leukemia
SNB-75 CNS = tested on: SNB-75 CNS
SW-620 colon = tested on: SW-620 colon
OVCAR-5 ovarian = tested on: OVCAR-5 ovarian
HCT-116 colon = tested on: HCT-116 colon
COLO 205 colon = tested on: COLO 205 colon
MOLT-4 leukemia = tested on: MOLT-4 leukemia
MALME-3M melanoma = tested on: MALME-3M melanoma
M19-MEL melanoma = tested on: M19-MEL melanoma

## COc1ccc(NC(=O)c2cc(OC)cc(OC)c2)cc1
RXF 393 renal
  TGI: 55.9 µM
786-0 renal
  TGI: > 100 µM
DMS 273 small cell lung
  TGI: > 100 µM
NCI-H226 lung
  TGI: > 100 µM
HOP-18 NSCLC
  TGI: > 100 µM
NCI-H460 lung
  TGI: > 100 µM
M14 melanoma
  TGI: > 100 µM
SNB-78 CNS
  TGI: 83.3 µM
UACC-257 melanoma
  TGI: > 100 µM
SF-295 CNS
  TGI: > 64.5 µM
HOP-92 NSCLC
  TGI: > 100 µM
OVCAR-8 ovarian
  TGI: > 100 µM
EKVX NSCLC
  TGI: > 100 µM
U251 CNS
  TGI: > 61.3 µM
LXFL 529 NSCLC
  TGI: > 100 µM
HT29 colon
  TGI: > 100 µM
CAKI-1 renal
  TGI: > 100 µM
ACHN renal
  TGI: > 100 µM
UACC-62 melanoma
  TGI: > 100 µM
SK-MEL-2 melanoma
  TGI: > 100 µM
RPMI-8226 leukemia
  TGI: > 100 µM
HCC-2998 colon
  TGI: > 100 µM
KM12 colon
  TGI: > 100 µM
SK-MEL-5 melanoma
  TGI: > 100 µM
SK-OV-3 ovarian
  TGI: > 84.8 µM
NCI-H23 lung
  TGI: > 100 µM
NCI-H522 lung
  TGI: 83.8 µM
SF-539 CNS
  TGI: > 70.3 µM
CCRF-CEM leukemia
  TGI: > 100 µM
XF 498 CNS
  TGI: > 100 µM
SK-MEL-28 melanoma
  TGI: > 100 µM
UO-31 renal
  TGI: > 100 µM
HCT-15 colon
  TGI: > 100 µM
SNB-19 CNS
  TGI: > 100 µM
IGROV1 ovarian
  TGI: > 100 µM
LOX IMVI melanoma
  TGI: > 100 µM
SR leukemia
  TGI: > 100 µM
DLD-1 colon
  TGI: > 100 µM
OVCAR-3 ovarian
  TGI: > 48.6 µM
DMS 114 small cell lung
  TGI: > 100 µM
TK-10 renal
  TGI: > 100 µM
SF-268 CNS
  TGI: > 100 µM
A549 NSCLC
  TGI: > 100 µM
SN12C renal
  TGI: > 100 µM
HOP-62 NSCLC
  TGI: > 100 µM
HL-60(TB) leukemia
  TGI: 39.1 µM
A498 renal
  TGI: > 100 µM
OVCAR-4 ovarian
  TGI: > 100 µM
KM20L2 colon
  TGI: 32 µM
K-562 leukemia
  TGI: > 100 µM
SNB-75 CNS
  TGI: > 83.6 µM
SW-620 colon
  TGI: > 100 µM
OVCAR-5 ovarian
  TGI: > 100 µM
HCT-116 colon
  TGI: > 100 µM
COLO 205 colon
  TGI: > 42.8 µM
MOLT-4 leukemia
  TGI: > 100 µM
MALME-3M melanoma
  TGI: > 100 µM

## O=C(O)C(Cc1ccccc1)N1C(=O)N/C(=C\c2ccc(F)cc2)C1=O (stereo unspecified)
RXF 393 renal
  TGI: > 100 µM
786-0 renal
  TGI: > 100 µM
DMS 273 small cell lung
  TGI: > 100 µM
NCI-H226 lung
  TGI: > 100 µM
HOP-18 NSCLC
  TGI: > 100 µM
NCI-H460 lung
  TGI: > 100 µM
M14 melanoma
  TGI: > 100 µM
SNB-78 CNS
  TGI: > 100 µM
UACC-257 melanoma
  TGI: > 100 µM
SF-295 CNS
  TGI: > 100 µM
HOP-92 NSCLC
  TGI: > 100 µM
OVCAR-8 ovarian
  TGI: > 100 µM
EKVX NSCLC
  TGI: > 100 µM
U251 CNS
  TGI: > 100 µM
LXFL 529 NSCLC
  TGI: > 100 µM
HT29 colon
  TGI: > 100 µM
CAKI-1 renal
  TGI: > 100 µM
ACHN renal
  TGI: > 100 µM
UACC-62 melanoma
  TGI: > 100 µM
SK-MEL-2 melanoma
  TGI: > 100 µM
RPMI-8226 leukemia
  TGI: > 100 µM
HCC-2998 colon
  TGI: > 100 µM
KM12 colon
  TGI: > 100 µM
SK-MEL-5 melanoma
  TGI: > 100 µM
SK-OV-3 ovarian
  TGI: > 100 µM
NCI-H23 lung
  TGI: > 100 µM
NCI-H522 lung
  TGI: > 100 µM
SF-539 CNS
  TGI: > 100 µM
CCRF-CEM leukemia
  TGI: > 100 µM
UO-31 renal
  TGI: > 100 µM
HCT-15 colon
  TGI: > 100 µM
IGROV1 ovarian
  TGI: > 100 µM
LOX IMVI melanoma
  TGI: > 100 µM
SR leukemia
  TGI: > 100 µM
DLD-1 colon
  TGI: > 100 µM
TK-10 renal
  TGI: > 100 µM
A549 NSCLC
  TGI: > 100 µM
SN12C renal
  TGI: > 100 µM
M19-MEL melanoma
  TGI: > 100 µM
HOP-62 NSCLC
  TGI: > 100 µM
HL-60(TB) leukemia
  TGI: > 100 µM
OVCAR-4 ovarian
  TGI: > 100 µM
K-562 leukemia
  TGI: > 100 µM
SNB-75 CNS
  TGI: > 100 µM
SW-620 colon
  TGI: > 100 µM
OVCAR-5 ovarian
  TGI: > 100 µM
HCT-116 colon
  TGI: > 100 µM
COLO 205 colon
  TGI: > 100 µM
MOLT-4 leukemia
  TGI: > 100 µM
